Reference: ChEMBL document CHEMBL3727353, “Small-molecule choline kinase inhibitors as anti-cancer therapeutics” (2011)

Experiments:
[1] = Clearance in Balbc mouse at 5 mg/kg, iv by LC-MS/MS analysis; assay type: ADME, organism-based; conditions: BALB/c, in vivo
[2] = Terminal half life in Balbc mouse at 5 mg/kg, iv by LC-MS/MS analysis; assay type: ADME, organism-based; conditions: BALB/c, in vivo, read-out: beta t1/2 (converted)
[3] = AUC (0 to infinity) in Balbc mouse at 5 mg/kg, iv by LC-MS/MS analysis; assay type: ADME, organism-based; set-up: dose 5 mg/kg, time infinity, route intravenous; conditions: BALB/c, in vivo
MDA-MB-231 = assay: Antiproliferative activity against human MDA-MB-231 cells after 72 hrs by alamar blue assay; assay type: functional, cell-based; conditions: MDA-MB-231, 72 h
K562 = assay: Antiproliferative activity against human K562 cells after 72 hrs by alamar blue assay; assay type: functional, cell-based; conditions: K562, 72 h

A clearance [1] of 129 mL/min/kg, a half-life [2] of 9 min and an AUC(0-inf) [3] of 1290 ng·h/mL were found for `CCOc1ccc(-c2nnc(SCC(=O)Nc3cc(C)cc(C)c3)[nH]2)cc1F` in this work.
An IC50 (MDA-MB-231) of 78.7 µM and an IC50 (K562) of 37 µM were found for `COc1ccc(-c2nnc(SCC(=O)Nc3ccc(F)cc3F)[nH]2)cc1` in this work.
